# Like-named read-outs stand apart in the source and are kept apart here. Where a SMILES comes first, the peptide text is derived from it. [ ]: non-standard residue; d: D form. The star is where a group is joined. X1 = OC[C@H]1O[C@@H](O[C@H]2[C@H](O)[C@@H](O)[C@H](*)O[C@@H]2CO)[C@H](O)[C@@H](O)[C@H]1O; Nle = CCCC[C@H](N)C(=O)O
# Tested on: LHb neurons
# Assay type: in vivo, male C57BL/6 mice
# [1] = mTBI+early TES2320: 10 mg/kg i.p. within 30 min after each of 5 injuries, cell-attached V=0, ~4 weeks post-injury, n=138 cells/13 mice
# [2] = mTBI+late TES2320: single 10 mg/kg i.p. injection one month post-mTBI, cell-attached V=0, n=58 cells/5 mice
compound,measurement,setting,value
CCCC[C@H](NC(=O)[C@H](CCC(N)=O)NC(=O)[C@H](CCCCN)NC(=O)[C@H](CCCNC(=N)N)NC(=O)[C@H](Cc1ccc(O)cc1)NC(=O)[C@H](CCCNC(=N)N)NC(=O)[C@H](CO)NC(=O)[C@H](Cc1ccc(O)cc1)NC(=O)[C@H](CO)NC(=O)[C@H](CC(=O)O)NC(=O)[C@@H](NC(=O)[C@H](Cc1ccccc1)NC(=O)[C@@H](NC(=O)CNC(=O)[C@H](CC(=O)O)NC(=O)[C@H](CO)NC(=O)[C@@H](N)Cc1c[nH]cn1)[C@@H](C)CC)[C@@H](C)O)C(=O)N[C@@H](C)C(=O)N[C@H](C(=O)N[C@@H](CCCCN)C(=O)N[C@@H](CCCCN)C(=O)N[C@@H](Cc1ccc(O)cc1)C(=O)N[C@@H](CC(C)C)C(=O)N[C@@H](CO[C@@H]1O[C@H](CO)[C@@H](O[C@@H]2O[C@H](CO)[C@H](O)[C@H](O)[C@H]2O)[C@H](O)[C@H]1O)C(N)=O)C(C)C [TES2320] (H-HSDGIFTDSYSRYRKQ[Nle]AVKKYLS(X1)-NH2; N-terminus assumed),effect on mTBI-induced spontaneous LHb tonic hyperactivity,"early intervention, 10 mg/kg i.p. x5, vs mTBI+vehicle p<0.01, Chi squared test",prevented
same,effect on mTBI-induced spontaneous LHb tonic hyperactivity,"late intervention, single 10 mg/kg i.p. one month post-mTBI, vs mTBI+vehicle p<0.05, Chi squared test",reversed
same,"LHb neurons bursting, spontaneous activity",[1],4%
same,"LHb neurons silent, spontaneous activity",[1],50%
same,"LHb neurons tonic, spontaneous activity",[1],46%
same,"LHb neurons bursting, spontaneous activity",[2],5%
same,"LHb neurons silent, spontaneous activity",[2],48%
same,"LHb neurons tonic, spontaneous activity",[2],47%

# From publication doi:10.64898/2025.12.05.692609v2, “Early intervention with a PACAP lactoside following repetitive mild traumatic brain injury prevents persistent LHb hyperactivity and motivational deficits in male mice” (bioRxiv, 2025)
